Here are results for three compounds from patent publication US9676859B2, “In vitro generation of dendritic cells by exposure to an anti-CSF1-R antibody” (TRANSGENE SA, priority 2012, dated 2017).

In series [1] the test system is differentiating macrophages. The series is described as follows: Human macrophage differentiation assay: microscopical observation and cell counts of day-6 cultures (cytotoxicity). It counts as cell-based. Particulars: for Microscopical observation of day-6 cultures (cytotoxicity), compared with untreated cells: all doses evaluated (mAbs 0.1, 1, 10 μg/ml, F(ab′)2 0.066, 0.66, 6.6 μg/ml), all donors. The text has this: Cells were counted following a 6-day culture of monocyte, or precursors thereof, s with GM-CSF and CSF-1, in the presence or absence of anti-CD115 mAbs or F(ab′)2 or with GW2580. Controls included cultures treated with rituximab or rituximab F(ab′)2, or without any added compound.
Buffy coats were provided by the Etablissement Français du Sang (EFS, Strasbourg). Peripheral blood mononucleated cells (PBMC) were obtained by centrifugation on a ficoll gradient. Monocytes were purified by immunomagnetic cell sorting, using CD14-antibody-coated beads (Miltenyii). […] Monocytes were differentiated for 6 days in 48-well plates (3×10^5 cells/well) in RPMI-Glutamax™ medium supplemented with 10% heat inactivated fetal calf serum and 1% tri-antibiotic mixture (penicillin, streptomycin, neomycin). GM-CSF (10 ng/ml) was added in the cell culture medium from day 0 to day 3. H27K15, other antibodies or internal control GW2580 (LC Labs) were added at day 0. On day 3 post-isolation, monocytes were washed with PBS and further cultivated in medium supplemented with CSF-1 (10 ng/ml) and GM-CSF (2 ng/ml), in the presence or absence of antibodies or GW2580. On day 6, supernatants were collected and stored at −20° C. Cells were detached from the plastic and pools of triplicates were analyzed by IC/FC (immunocytochemistry/flow cytometry) for cell sizes and expression of FcγR and CD86. Cytokines and chemokines were quantified in the culture supernatants by multiplex (Bioplex, Bio-Rad) or by ELISA.
Three different doses of mab H27K15 or isotype control rituximab (0.1; 1 or 10 μg/ml) were added to the culture medium at the beginning of the culture and again 3 days later. F(ab′)2 generated from H27K15 or from rituximab were tested in parallel at equivalent molar concentrations.
Cell viability was analyzed at day 6 by counting 5 microscope fields in each well of the plate (one in the center of the well and four fields at mid-distance between the center and the side of the well).

A further series relates to CD64 (FcγRI). The series is described as follows: Surface expression of CD64 on day-6 macrophages by IC/FC. Particulars: GW2580 1 μM vs no treatment. It counts as cell-based, human. Here is the method: Macrophages obtained following a 6-day culture of monocyte, or precursors thereof from 3 different blood donors with GM-CSF and CSF-1 were analyzed by IC/FC for surface expression of CD64. Upper panels: CD64 staining in cultures from donor 1 treated with monoclonal antibody H27K15 (left, bold line) or with GW2580 (right, bold line) or their respective negative controls rituximab (left, thin line) or no treatment (right, thin line). Lower panel: Medians of fluorescence intensities in macrophage cultures treated with test compounds at 10, 1 or 0.1 μg/ml* were compared with those in the corresponding negative controls: H27K15 vs rituximab, H27K15-derived F(ab′)2 vs rituximab-derived F(ab′)2, mAbs 2-4A5 or 9-4D2 vs rat IgG1, GW2580 vs no treatment. Percentages of reduction in CD64 expression were calculated as: 100−[100×Median fluorescence intensity with test compound/Median fluorescence intensity with control]. […]
Buffy coats were provided by the Etablissement Français du Sang (EFS, Strasbourg). […] Cells were detached from the plastic and pools of triplicates were analyzed by IC/FC (immunocytochemistry/flow cytometry) for cell sizes and expression of FcγR and CD86. Cytokines and chemokines were quantified in the culture supernatants by multiplex (Bioplex, Bio-Rad) or by ELISA. […]

The test system of a further series is CD86. The series is described as follows: Induction of CD86bright SSClow macrophage population by IC/FC. It counts as cell-based, human. Particulars: day-6 macrophages; mAb 10, 1, 0.1 μg/ml, F(ab′)2 equimolar, GW2580 1 μM. Here is the method: Upper panels: Dot plots showing CD86 staining (x-axis) and side scatter (SSC, y-axis) of macrophages from donor 3 differentiated for 6 days in the presence of H27K15 (left) or negative control rituximab (right). A gate was set on the CD86^bright SSC^low cell population induced by H27K15. Lower panel: Percentages of CD86^bright SSC^low cells with the test compounds at 10, 1 or 0.1 μg/ml* were compared with those in the corresponding negative controls: H27K15 vs rituximab, H27K15-derived F(ab′)2 vs rituximab-derived F(ab′)2, GW2580 vs no treatment. Percentages of increase in the CD86^bright SSC^low cell population were calculated as: 100×percentage of CD86^bright SSC^low cells with test compound/percentage of CD86^bright SSC^low cells with control. Shown are the mean percentages of increase in the CD86^bright SSC^low cell population from the 3 blood donors. *except for F(ab′)2: 6.6; 0.6; and 0.06 μg/ml.
(§1) Buffy coats were provided by the Etablissement Français du Sang (EFS, Strasbourg). Peripheral blood mononucleated cells (PBMC) were obtained by centrifugation on a ficoll gradient. […] Cells were detached from the plastic and pools of triplicates were analyzed by IC/FC (immunocytochemistry/flow cytometry) for cell sizes and expression of FcγR and CD86. Cytokines and chemokines were quantified in the culture supernatants by multiplex (Bioplex, Bio-Rad) or by ELISA. […]

The next series has as its system IL-12p70. In words: IL-12p70 titration in day-6 macrophage culture supernatants. To be noted: day-6 supernatants, 3 blood donors, GW2580 1 μM; for IL-12p70 secretion: mAbs 1 μg/ml, detection limit 11 pg/ml. It counts as cell-based, human. Here is the method:
(§2) IL-12p70 and IL-10 were titrated in the culture supernatants from day-6 macrophages differentiated in the presence of mAb H27K15 (1 μg/ml), GW2580 (1 μM) or their respective negative controls rituximab or no treatment. Left panel: IL-12p70 and IL-10 levels […] in macrophage cultures from 3 blood donors. Right: IL-12p70 […]/IL-10 […] ratios were calculated for each blood donor and each culture condition. In samples where IL-12p70 was undetectable (below the detection limit of 11 pg/m)l, its level was arbitrarily set at 1 pg/ml for the calculation of IL-12p70/IL-10 ratios.
(§3) Buffy coats were provided by the Etablissement Français du Sang (EFS, Strasbourg). Peripheral blood mononucleated cells (PBMC) were obtained by centrifugation on a ficoll gradient. Monocytes were purified by immunomagnetic cell sorting, using CD14-antibody-coated beads (Miltenyii). Enriched monocyte suspensions were more than 95% pure. Monocytes were differentiated for 6 days in 48-well plates (3×10^5 cells/well) in RPMI-Glutamax™ medium supplemented with 10% heat inactivated fetal calf serum and 1% tri-antibiotic mixture (penicillin, streptomycin, neomycin). GM-CSF (10 ng/ml) was added in the cell culture medium from day 0 to day 3. H27K15, other antibodies or internal control GW2580 (LC Labs) were added at day 0. On day 3 post-isolation, monocytes were washed with PBS and further cultivated in medium supplemented with CSF-1 (10 ng/ml) and GM-CSF (2 ng/ml), in the presence or absence of antibodies or GW2580. On day 6, supernatants were collected and stored at −20° C. Cells were detached from the plastic and pools of triplicates were analyzed by IC/FC (immunocytochemistry/flow cytometry) for cell sizes and expression of FcγR and CD86. Cytokines and chemokines were quantified in the culture supernatants by multiplex (Bioplex, Bio-Rad) or by ELISA.
IL-12p70 and IL-10 were titrated in day-6 culture supernatants.

The next series has as its system IL-10. The series is described as follows: IL-10 titration in day-6 macrophage culture supernatants. It counts as cell-based, human. Particulars: day-6 supernatants; GW2580 1 μM. The protocol:
as §2
as §1, with “gradient. Monocytes were purified by immunomagnetic cell sorting, using CD14-antibody-coated beads (Miltenyii). Enriched monocyte suspensions were more than 95% pure.” for “gradient.”

Another series relates to MCP-1/CCL2. The series is described as follows: MCP-1/CCL2 titration in day-6 macrophage culture supernatants. It counts as cell-based, human. Particulars: day-6 supernatants; H27K15 1 μg/ml, GW2580 1 μM. The protocol: MCP-1 and IL-6 were titrated in the culture supernatants from day-6 macrophages differentiated in the presence of mAb H27K15 (1 μg/ml), GW2580 (1 μM) or their respective negative controls rituximab or no treatment. Percentages of reduction in MCP-1 (upper panel) or in IL-6 production (lower panel) were calculated for the 3 blood donors as: 100−[100×cytokine concentration with test compound (pg/ml)/cytokine concentration with control (pg/ml)].
as §3, with “H27K15, other antibodies or internal control GW2580 (LC Labs) were added at day 0. On day 3 post-isolation, monocytes were washed with PBS and further cultivated in medium supplemented with CSF-1 (10 ng/ml) and GM-CSF (2 ng/ml), in the presence or absence of antibodies or GW2580. On day 6, supernatants were collected and stored at −20° C.” left out, “ELISA. […]” for “ELISA.”

In the next series the test system is MMP-9. The series is described as follows: MMP-9 ELISA in day-6 supernatants of monocytes cultured with GM-CSF and CSF-1. It counts as cell-based, human. Particulars: mAb 0.1, 1, 10 μg/ml, F(ab)′2 equimolar, effect in 2 out of 3 donors. Here is the method: Monocytes isolated from 3 different blood donors were differentiated for 6 days in the presence of GM-CSF and CSF-1, with or without mAb H27K15, Rituximab or GW2580. MAb H27K15 or Rituximab (0.1, 1 or 10 μg/ml) or equimolar concentrations of F(ab)′2 derived from both mAbs were added to the cultures. MMP-9 was titrated by ELISA (R&D Systems) in day-6 culture supernatants.
CD14^+ monocytes from 3 different donors were allowed to differentiate in the presence of both GM-CSF and CSF-1, known to induce macrophage differentiation towards respectively the M1- and M2-types. MAb H27K15 or Rituximab (used as a negative control) were added to the cultures at 0.1, 1 or 10 μg/ml. Equimolar concentrations of F(ab)′2 derived from both mAbs were assayed in parallel. The tyrosine kinase inhibitor GW2580, previously shown to inhibit the CSF-1-dependent proliferation of human monocytes and the differentiation of murine macrophages in vitro was tested in the same assay. After 6 days of culture, MMP-9 concentrations were measured in the supernatants by ELISA (FIG. 6). […] Thus, mAb H27K15 is capable of decreasing MMP-9 secretion by differentiating M2 macrophages.

Series [2] relates to CD163+ M2-type macrophages. In words: Flow cytometry of CD163-positive M2-type macrophages in day-6 cultures. It counts as cell-based, human. Particulars: day-6 cultures with GM-CSF and CSF-1; 3 donors. The protocol: Cells obtained after 6-day culture with GM-CSF and CSF-1 were harvested and incubated for 20 min at 4° C. with PBS containing human IgG Fc fragments to saturate Fc receptors. Fluorochrome-conjugated mAbs (anti-CD14-PerCP-Cy5.5, anti-CD163-PE, anti-CD206-APC, anti-CD1a-FITC, BD Biosciences) were then incubated with each sample for 20 min at 4° C. FCM analysis was performed using a FACS LSR-II (BD biosciences) with the DIVA software. Data from 3 different blood donors are presented.
The surface expression of CD163 was analyzed by flow cytometry in day-6 macrophages derived from human monocytes cultured with GM-CSF and CSF-1. […] Culture with mAb H27K15 inhibited the differentiation of the CD163^+ macrophage population in all 3 donors tested. In the presence of 1 μg/ml H27K15, percentages of CD163-positive cells decreased from 2.5 to 4 folds compared with control cultures treated with rituximab.

Turning to `COc1ccc(COc2ccc(Cc3cnc(N)nc3N)cc2OC)cc1` [GW2580, reference compound], the “macrophage number remained at day 6 compared with untreated cultures” value in series [1] (1 μM) was “approximately 70%”. Also, the “Microscopical observation of day-6 cultures (cytotoxicity)” value in series [1] (1 μM, all blood donors) is recorded as “relative cytotoxicity”. For the same compound, the “surface expression of CD64” value in the series with CD64 (FcγRI) is recorded as “drastically reduced”. Further, the “Induction of CD86bright SSClow cell sub-population” value with CD86 is on record as “had appeared”. For the same compound, the IL-12p70/IL-10 ratios result in the series on IL-12p70 (H27K15 1 μg/ml, vs rituximab or no treatment) is given as “increased”. Also, the IL-12p70 secretion entry with IL-12p70 is on record as “not detectable”. The IL-10 production entry in the series on IL-10 is reported as “inhibition”. For the same compound, the “production of the chemokine MCP-1/CCL2” value with MCP-1/CCL2 is given as “almost totally suppressed”. Also, the MMP-9 production entry in the series on MMP-9 is given as “dose-dependent decrease”. Further, the “differentiation of the CD163+ macrophage population” value in series [2] is “same effect in only 2/3 donors”.
Regarding “Rituximab F(ab′)2: F(ab′)2 produced by pepsine digestion of rituximab, negative control”, the “Microscopical observation of day-6 cultures (cytotoxicity), compared with untreated cells” value in series [1] is “no obvious differences”.
“Rituximab: human IgG1 isotype / negative control, obtained from Roche”: the “Microscopical observation of day-6 cultures (cytotoxicity), compared with untreated cells” value in series [1] is on record as “no obvious differences”. In the series on IL-12p70, the IL-12p70 secretion result is recorded as “did not produce any detectable IL-12p70”.
